In US9332761B2, “Synergistic combination of a chlorotoluron compound and zinc pyrithione for dry film protection” (Rohm and Haas Company, priority 2013, dated 2016):

Test system: Chlorella sp. ATCC 7516
Assay: Algal efficacy testing of dry paint films (modified ASTM 5589, 6-well plates)
Format: cell-based
Details: 3 weeks; for Total conc, ppm (minimum total biocide concentration in paint reaching pass level): pass level >=75% algal growth inhibition, acrylic/silicone paint film on filter paper
Experimental: These paints were then diluted with an antimicrobial free acrylic/silicone based paint and mixed to prepare targeted concentrations of antimicrobial compounds for the testing. The total biocides concentrations tested were 125, 250, 500, 1000, 2000 and 5000 ppm. After biocides addition or dilution, the paints were mixed 90 seconds with the horse power shaker (AXEL 75M3372/Agitateur SO-10MI) until uniformity was achieved. Paints containing different antimicrobial compounds at the same levels were mixed together in order to obtain the desired ratio of antimicrobial compounds. After one day, the paints were applied to Schleicher & Schuell filter paper at 280 μm wft and dried for 3 days at room temperature avoiding direct exposure to sunlight. Square discs (1.6 cm×1.6 cm) were cut out from each panel and were used as the substrate for algal efficacy tests. This sample size allowed for an agar border when the sample disc was placed into the well of the test plate.
Algal efficacy was tested according to modified ASTM 5589 which is a standard accelerated test method for determining resistance of various coatings (including paints) to algal defacement. To accommodate for high-throughput screening, this method was scaled down from petri dishes to 6-well plates. Bold Modified Basal Freshwater Nutrient Solution was used as growth medium. A single coated filter paper coupon was placed with a pair of sterile forceps at the center of the agar plug (on top) with the painted surface facing upwards.
Each well that contains a tested coupon was inoculated with 1750 μl of algal suspensions (1×10^6 cfu/ml) making sure that the whole surface (paint film as well as the agar surrounding it) was evenly covered. The plates were incubated at room temp (21° C.-25° C.) with cyclic exposure to light and dark phases, for a period of three weeks.
At the end of the three week incubation period, the samples were scored for percent inhibition regarding color intensity compared to the blank sample.
The Synergy Index calculation was performed as follows.
The SI is calculated based on F. C.
SI value of <1 in the formula indicates a synergism of the blended biocides exists.
The minimal targeted inhibition was set at 75%, meaning a coupon with at least 75% algal growth inhibition was considered as a pass.

Structure (SMILES)	Total conc, ppm (minimum total biocide concentration in paint reaching pass level)	inhibition at 1000 ppm (504 h, at total conc 1000 ppm in paint)	% inhibition (at total conc 500 ppm in paint)
Cc1ccc(NC(=O)N(C)C)cc1Cl [Chlorotoluron, N′-(3-chloro-4-methylphenyl)-N,N-dimethylurea]	1000 ppm	100%	
[O-][n+]1ccccc1[S][Zn][S]c1cccc[n+]1[O-] [ZnPT, bis(2-pyridylthio)zinc 1,1′-dioxide]	500 ppm		95%
